Test results reported in the COVID Moonshot data (paper PMC11187573), “Identification of SARS-CoV-2 Mpro inhibitors through deep reinforcement learning for de novo drug design and computational chemistry approaches” (RSC Medicinal Chemistry, 2024).

Key:
[1] = target: SARS-CoV-2 Main Protease (SARS-CoV-2) (UniProt P0DTD1)
[2] = target: SARS-CoV-2 Main Protease (SARS-CoV-2) (UniProt P0DTD1); remark: listed apart in the source
Experimental: Compounds were seeded into assay-ready plates (Greiner 384 low volume, cat 784900) using an Echo 555 acoustic dispenser, and DMSO was back-filled for a uniform concentration in assay plates (DMSO concentration maximum 1%) Screening assays were performed in duplicate at 20µM and 50µM. […] Dose response assays were performed in 12 point dilutions of 2-fold, typically beginning at 100µM. […] Reagents for Mpro assay were dispensed into the assay plate in 10µl volumes for a final volume of 20µL.
Mpro was pre-incubated for 15 minutes at room temperature with compound before addition of substrate and a further 30 minute incubation. Protease reaction was measured in a BMG Pherastar FS with a 480/520 ex/em filter set. Raw data was mapped and normalized to high (Protease with DMSO) and low (No Protease) controls using Genedata Screener software.

| Structure (SMILES) | inhibition ([1]; 50.0 µM) | inhibition ([2]; 50.0 µM) | inhibition ([2]; 20.0 µM) | IC50 [1] | inhibition ([1]; 20.0 µM) | IC50 [2] |
| --- | --- | --- | --- | --- | --- | --- |
| Cc1ccc2nc(-c3ccc(N)cc3)sc2c1S(=O)(=O)O | 0% | 21.2% |  |  |  |  |
| O=C(Nc1cccnc1)Nc1cc(O)cc(Cl)c1 | 19.4% | 21.2% | 4.43% |  |  |  |
| O=C(Nc1cccnc1)N(CCN1CCOCC1)c1cccc(Cl)c1 | 59.4% | 49.6% | 24.4% |  |  |  |
| Cn1cc(NC(=O)Nc2ccccn2)c2ccccc2c1=O | 0% | -0.727% | -2.17% |  |  |  |
| O=S(=O)(Nc1ccccc1SCc1cccc(Cl)c1F)c1cc(Cl)sc1Cl |  | 81.3% | 90.3% | 1.92 µM |  |  |
| O=C(C(F)Cl)N1CCN(Cc2cccc3ccccc23)CC1 (centres undefined) | 9.11% | 29.5% | 20.5% |  |  |  |
| CC(C)c1nc(CN(C)C(=O)N[C@H](C(=O)N[C@@H](Cc2ccccc2)C[C@H](O)[C@H](Cc2ccccc2)NC(=O)OCc2cncs2)C(C)C)cs1 (stereo in doubt) |  | 6.72% | 2.31% |  | 0% |  |
| Cc1nc(N)sc1CN1CCN(Cc2cccc(Cl)c2)C1=O | 0% | 35.6% | 5.38% |  |  |  |
| CC(C)n1c(NC(=O)C2CCOc3ccccc32)nc2ccccc21 (centres undefined) | 8.85% | -2.12% | 27.9% |  |  |  |
| CC(=O)Oc1ccccc1C(=O)Nc1ncc([N+](=O)[O-])s1 | 0% | -8.72% |  |  |  |  |
| O=C1C(=O)N(CCCOc2ccc(Cl)cc2)c2ccccc21 | 7.23% | 3.47% | -0.218% |  |  |  |
| COC(=O)c1c(NCCCc2ccccc2)c2cc(F)ccc2[nH]c1=O |  | 7.56% | 20.5% | 68.6 µM |  |  |
| CS(=O)(=O)c1ccc(N2CCNCC2)cc1 |  | 5.05% | -2.52% | 83.8 µM |  |  |
| CC(C)Cn1cc(NC(=O)NCCCN2CCC(C)CC2)c2ccccc2c1=O |  | -1.61% | -1.82% | 98.2 µM |  |  |
| O=C(Oc1cncc(Cl)c1)c1cccc2[nH]ccc12 | 100% | 100% | 99.8% |  |  |  |
| COc1ccc2c(c1F)NC(=O)C2=O | 7.79% | 3.02% | -1.15% |  |  |  |
| CC(C)(C)NC(=O)CN1C(=O)C(=O)c2cccc(Br)c21 | 0% | 1.28% | -2.41% |  |  |  |
| OC[C@@]1(F)CCN(c2nc(-c3cccnc3)nc3sc4c(c23)CCC4)C1 (stereo in doubt) | 0% | 6.05% | 1.46% |  |  |  |
| CC(C)Cn1cc(NC(=O)NC2=NN(c3ccccc3)CC2)c2ccccc2c1=O | -5.97% | 5.45% | 1.37% |  |  |  |
| Cc1cccc(COC(=O)c2cccc3c2NC(=O)C3=O)c1 | 83.7% | 0.0384% | -1.1% | 17.3 µM |  |  |
| C/C(O)=C(\C#N)C(=O)Nc1ccc(C(F)(F)F)cc1 | 22.2% | -3% | -2.89% |  |  |  |
| NCCn1cc(C(=O)N2CC3(CCC3)c3cc(Br)ccc32)cn1 | 0% | 7.52% | -2.84% |  |  |  |
| Cc1cc(C)nc(NC2CCN(C(=O)CCl)CC2)n1 | 100% | 81.5% | 46.1% | 19.5 µM |  |  |
| CCCCN(CCCNC(=O)Nc1cn(CC(C)C)c(=O)c2ccccc12)c1ccccc1 |  | -3.25% | -4.26% | 82.7 µM |  |  |
| C=CC(=O)N1CCN(Cc2ccc(F)cc2)CC1 | 0% | 11.4% | 7.92% |  |  |  |
| CC(C)(C)c1ccc(-c2nnc(Sc3cnc([N+](=O)[O-])s3)o2)cc1 |  | 69.9% | 8.3% | 0.164 µM |  | 4.16 µM |
| Cc1cc([C@H](C)C(=O)O)cc2[nH]c3ccc(Cl)cc3c12 (stereo in doubt) | 9.04% | 3.37% | 0.304% |  |  |  |

| Structure (SMILES) | inhibition ([1]; 50.0 µM) | inhibition ([2]; 50.0 µM) | inhibition ([2]; 20.0 µM) | IC50 [1] | inhibition ([1]; 20.0 µM) | IC50 [2] |
| --- | --- | --- | --- | --- | --- | --- |
| COc1ccccc1OCCNC(=O)c1cc(=O)[nH]c2cccc(F)c12 |  | 12.5% | 8.74% | 1.83 µM |  |  |
| N#Cc1ccc(CN2CCC(C3CCNC3)CC2)cc1 (centres undefined) |  | 98.9% | 97.1% | 1.36 µM |  |  |
| CCOc1ccccc1CN1C(=O)C(=O)c2cc(Br)ccc21 | 72.2% | 3.64% | 0.566% | 12.4 µM |  |  |
| COC(=O)c1cc(Br)cc2c1NC(=O)C2=O | 61.7% | -5.38% | -5.73% | 42.3 µM |  |  |
| O=C1C(=O)N(Cc2ncon2)c2ccc(Br)cc21 | 94.1% | -2.4% | -1.88% | 3.79 µM |  |  |
| C#Cc1ncccc1NC(=O)Cc1cccc(Cl)c1 | 7.93% | 3.62% | -2.01% |  |  |  |
| O=C(O)[C@@H](c1ccccc1)N1Cc2ccccc2C1=O (stereo in doubt) |  | 99.4% | 96.3% | 1.16 µM |  |  |
| Nc1ncc(S(=O)(=O)c2ccc(Cl)cc2)c(N)n1 | 0% | -22.1% |  |  |  |  |
| COc1cc(OC)cc(Oc2cccc(CNC(=O)Cn3nnc4ccccc43)c2)c1 | 0% | 0.116% | -3.39% |  |  |  |
| C=CC(=O)NCC(=O)N(Cc1ccccc1)C[C@H](O)c1ccccc1 (stereo in doubt) | 0% | 0.986% | -0.281% |  |  |  |
| C=CC(=O)N(C(CO)CC#CC)C(C(=O)NC(C)(C)C)c1cccnc1 (centres undefined) | 0% | -4.3% | -4.06% |  |  |  |
| CC(C)C[C@@H]1CN(C(=O)CCl)CCN1Cc1cccc(Cl)c1 (stereo in doubt) | 100% | 99.5% | 99.2% | 0.515 µM |  |  |
| COc1ccccc1OCCN1C(=O)C(=O)c2cc(Br)cc(C)c21 | 48.1% | -0.707% | -2.64% |  |  |  |
| CNC(=O)c1ccc(CS(=O)(=O)NCC(F)(F)c2ccc(F)cc2F)cc1 | 0% | 9.79% | 6.87% |  |  |  |
| N#Cc1cccc(CN2C(=O)C(=O)c3cccc(Br)c32)c1 | 91.2% | -2.38% | -5.42% | 0.017 µM |  |  |
| Nc1cncc2c1CCCN2C(=O)Cc1cccc(Cl)c1 |  |  |  | 54.2 µM |  | 32.5 µM |
| O=[N+]([O-])c1cnc(Sc2nnc(-c3ccco3)n2-c2ccc(OCc3ccccc3)cc2)s1 |  | 94.4% | 31.8% | 0.66 µM |  |  |
| O=C1CC(Oc2cc(Cl)cc(N(CCC3CCCCC3)C(=O)Nc3cncc4ccccc34)c2)N1 (centres undefined) |  |  |  | 1.58 µM |  | 0.105 µM |
| Cc1ccc(S(=O)(=O)Nc2c(-c3cccnc3)nc3ccccn23)c(C)c1 | 0% | 7.7% | 2.5% |  |  |  |
| COc1ccc(-c2cc(COc3cc(Cl)cc(CC(=O)Nc4cnccc4C)c3)on2)cc1 | 67.3% |  |  | 13.8 µM |  | 71.5 µM |
| O=C(Nc1ccc([N+](=O)[O-])cc1)c1cc(Cl)ccc1O | 6% | -15.6% | -7.24% |  | 2.8% |  |
| Cc1ccc(S(=O)(=O)N2CCC(NC(=O)N(C)Cc3cc(C)on3)CC2)cc1 | 0% | 2.6% | -1.1% |  |  |  |
| CN(CCC(N)=O)C(=O)C(=O)N1Cc2ccccc2C(c2ccccc2)C1 (centres undefined) | 0% | -0.803% | -0.756% |  |  |  |
| CCOC(=O)c1ccc(NC(=O)CC2SC(=O)N(c3ccccc3)C2=O)cc1 (centres undefined) |  | 80.7% | 79% | 0.635 µM |  |  |
| O=C(Cc1cccc(Cl)c1)Nc1cccnc1 | 52.4% | 40.9% | 24.1% |  |  |  |
| O=C1Nc2ccc(OCCF)cc2C1=O | 56.2% | -2.92% | -6.86% | 45.2 µM |  |  |
